The source of these data is ChEMBL document CHEMBL3639079, “Hydroxamic acid derivative” (2015).

The assay concerns the target T1, UDP-3-O-acyl-N-acetylglucosamine deacetylase (Pseudomonas aeruginosa (strain ATCC 15692 / PAO1 / 1C / PRS 101 / LMG12228), UniProt P47205).
T1 sequence (P47205 whole entry): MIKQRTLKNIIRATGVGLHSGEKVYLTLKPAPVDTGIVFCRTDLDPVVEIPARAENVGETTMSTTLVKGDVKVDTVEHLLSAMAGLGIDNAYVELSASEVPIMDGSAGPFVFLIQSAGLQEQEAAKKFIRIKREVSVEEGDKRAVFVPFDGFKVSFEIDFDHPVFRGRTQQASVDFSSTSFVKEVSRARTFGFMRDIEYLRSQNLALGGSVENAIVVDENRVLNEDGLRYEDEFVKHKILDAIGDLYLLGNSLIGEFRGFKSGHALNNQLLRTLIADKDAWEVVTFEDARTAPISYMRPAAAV
Description: The reaction was performed in 40 mmol/L of Hepes buffer solution (pH 8.0) supplemented with 0.02% Bridge 35 and 80 µmol/L of dithiothreitol. To terminate the reaction, 0.2 mol/L of borax was added to the reaction mixture.

What is called IC50 is the concentration at which inhibition is half-maximal. Regarding `CNC(=O)C(C(=O)NO)N(C)C(=O)c1ccc(-c2ccc(OCCCN3CCOCC3)cc2)cc1` (stereo unspecified), half-maximal inhibition (IC50) was put at 6.7 nM.
